This note sets out measurements from patent EP4471049A1 (Zealand Pharma A/S, priority 2023, dated 2024).

*1 amine or outer side, *2 acyl side, *3 side chain or, on linkers, in order; H or OH if unused. Where a SMILES comes first, the peptide text is derived from it. Bridges are numbered along the chain shown (N, C = ends). Where no end group is shown, it is not given here. [ ]: non-standard residue; d: D form. The star is where a group is joined. 4‑Aminomethyl‑phenylacetyl = 4-aminomethyl-phenylacetyl unit, its amine closes the lactam, O=C(Cc1ccc(CN[*:1])cc1)[*:2]; dGly‑CF3 = O=C([C@H](N[*:1])C(F)(F)F)[*:2]; 2Nal = N[C@@H](Cc1ccc2ccccc2c1)C(=O)O; AEF = NCCOc1ccc(C[C@H](N)C(=O)O)cc1; X1 = O=C(Cc1ccc(CN[*:1])cc1)[*:2]; 3Pal = N[C@@H](Cc1cccnc1)C(=O)O; αMeL = CC(C)C[C@](C)(N)C(=O)O; Pyrrolidide = C1CCN(*)C1; Dab = NCC[C@H](N)C(=O)O

One assay deals with T1, human IL-23R (Homo sapiens, UniProt Q5VWK5).
T1 sequence (Q5VWK5 22-629): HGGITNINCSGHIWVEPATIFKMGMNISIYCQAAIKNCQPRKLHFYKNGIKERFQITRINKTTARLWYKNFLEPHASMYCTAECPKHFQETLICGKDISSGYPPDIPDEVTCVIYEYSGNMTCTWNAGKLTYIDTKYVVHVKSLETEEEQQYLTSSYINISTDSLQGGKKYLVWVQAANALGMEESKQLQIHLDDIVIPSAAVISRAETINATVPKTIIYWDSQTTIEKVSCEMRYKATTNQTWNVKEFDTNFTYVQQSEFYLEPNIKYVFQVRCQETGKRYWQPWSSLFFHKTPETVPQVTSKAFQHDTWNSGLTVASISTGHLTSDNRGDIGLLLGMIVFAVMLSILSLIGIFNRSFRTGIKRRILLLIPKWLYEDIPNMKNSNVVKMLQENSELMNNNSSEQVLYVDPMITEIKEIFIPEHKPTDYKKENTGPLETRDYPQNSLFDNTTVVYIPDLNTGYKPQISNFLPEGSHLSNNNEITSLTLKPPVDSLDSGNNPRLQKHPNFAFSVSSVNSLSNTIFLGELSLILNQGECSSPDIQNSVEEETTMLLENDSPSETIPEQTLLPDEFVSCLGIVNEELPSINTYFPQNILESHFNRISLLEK
In words: biochemical. To be noted: for Emax: read-out: % displacement (hIL-23R binding). An excerpt:
The compound binding affinity for IL-23R was estimated by the ability of compounds to displace a fluorophore-labelled reference compound from the human IL-23R. The assay principle relies on Bioluminescence Resonance Energy Transfer (BRET) between a fluorophore-labelled reference compound binding to the IL-23R part of a fusion protein consisting of the IL-23R fused to a Nanoluc luciferase enzyme (Nanoluc). The Nanoluc is placed in the N-terminus in close proximity to the binding domain of the ligand. Upon close proximity between the fluorophore of the fluorophore-labelled compound and the Nanoluc of the fusion protein, bioluminescence energy generated from conversion of a Nanoluc substrate, is transferred to the fluorophore resulting in an increase in BRET. In presence of an unlabelled compound, the unlabelled compound displaces the fluorophore-labelled peptide from its binding site resulting in a decrease in BRET. The concentration for which half of the fluorophore-labelled peptide is displaced by the unlabelled compound depends on the affinity of the compound for the IL-23R, and is termed the IC50 concentration.
The plasmid also contained a gene to confer resistance for the antibiotic hygromycin. A cell line stably expressing the Nluc-IL23R fusion protein was generated by transfection of HEK293 cells with the expression plasmid and selected with hygromycin for 3 weeks in Growth medium consisting of DMEM w/ Glutamax-I containing, 10% V/V FBS, 1% V/V P/S, 1 mM Sodium Pyruvate, and 1X NEAA, and 0.3 mg/mL hygromycin. The remaining cells were propagated and considered a stable expressing Nluc-IL23R fusion protein pool clone.
Cells expressing the Nluc-IL23R fusion protein were expanded in Growth medium and membranes prepared by homogenization of a cell pellet from 18 T175 flasks (4 °C in subsequent steps). The cell pellet was lysed Tris 10 mM, 7.5, 1 mM EDTA and protease inhibitors (Complete, Roche) and homogenized using a 15 mL glass-dounce by 50 strokes. The homogenate was spun at spin @1500 rpm for 10 min, the supernatant transferred to SV-34 tubes and spun at 40000g for 20 min at 4 °C to pellet the crude membranes. The supernatant was then removed, the pellet resuspended in 5 mL buffer containing 50 mM HEPES pH 7.4, 5 mM EGTA, and 5 mM MgCl2, and homogenized. Aliquots of the resuspended and homogenized membranes containing the Nluc-IL23R fusion protein were stored at -80 °C until use.
The plate was sealed with light impermeable plate seals, and incubated on an orbital shaker 400 rpm for 2 hours at room temperature. To determine the BRET ratio, the plate seal was removed and 25 µL of the Nanoluc substrate (Promega N1572) diluted 1:500 was added to each well and incubated for 1-2 minutes on an orbital shaker at 400 rpm. […] The BRET ratio was calculated as the fluorescence from the TAMRA/nanoluc bioluminescence.
Compound potency (IC50) and maximal displacement (% displacement) were estimated by computer-aided curve fitting using a 4-parameter logistic (4PL) non-linear model. […]
In this application, the inventors provide the data as IC50 values.

The target of assay [1] is T2, human IL-23R endogenously expressed on DB cells (human, UniProt Q5VWK5 24-629).
T2 sequence (looked up): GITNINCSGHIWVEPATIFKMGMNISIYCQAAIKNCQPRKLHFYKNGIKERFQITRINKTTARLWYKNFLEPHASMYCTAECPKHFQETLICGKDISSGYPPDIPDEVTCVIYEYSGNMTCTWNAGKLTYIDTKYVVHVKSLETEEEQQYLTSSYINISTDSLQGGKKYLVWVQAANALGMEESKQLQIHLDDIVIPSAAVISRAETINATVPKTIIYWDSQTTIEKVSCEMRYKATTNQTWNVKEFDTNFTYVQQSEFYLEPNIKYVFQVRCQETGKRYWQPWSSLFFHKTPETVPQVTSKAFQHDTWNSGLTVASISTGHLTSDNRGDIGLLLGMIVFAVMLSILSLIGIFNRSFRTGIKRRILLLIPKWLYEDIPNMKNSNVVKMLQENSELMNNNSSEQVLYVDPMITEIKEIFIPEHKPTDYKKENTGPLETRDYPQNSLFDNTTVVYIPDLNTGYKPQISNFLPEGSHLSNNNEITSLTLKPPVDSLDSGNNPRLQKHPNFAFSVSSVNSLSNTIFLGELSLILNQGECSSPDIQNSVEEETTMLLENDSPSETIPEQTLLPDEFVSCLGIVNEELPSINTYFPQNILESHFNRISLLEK
As to the kind of experiment: cell-based or functional assay.

For `CNC(=O)[C@H](Cc1cccnc1)NC(=O)[C@H](CCN)NC(=O)[C@@H]1CCC(=O)NCc2ccc(cc2)CC(=O)N[C@@H](CO)C(=O)N[C@H]2CCC(=O)NCC[C@H](NC(=O)[C@H](CCC(=O)N3CCCC3)NC(=O)[C@H](Cc3c[nH]c4ccccc34)NC2=O)C(=O)N[C@@H](Cc2ccc(OCCN)cc2)C(=O)N[C@@H](Cc2ccc3ccccc3c2)C(=O)N[C@@](C)(CC(C)C)C(=O)N1` [Compound 27, [4-Aminomethyl-phenylacetyl](1c)*SE(2c)W[Q(pyrrolidin)][Dab](2c)[Y(2-aminoethoxy)][2-Nal][2-Me-Leu]E(1c)[Dab][3-(3-Pyridyl)-Ala]-[NHMe]] ([X1]SEWE(Pyrrolidide)[Dab][AEF][2Nal][αMeL]E[Dab][3Pal]-NHMe; lactam 3-6, N-10), the “% displacement (hIL-23R binding)” value on human IL-23R came out at 97%.
Take `CNC(=O)[C@H](Cc1cccnc1)NC(=O)[C@H](CCN)NC(=O)[C@@H]1CCC(=O)NCc2ccc(cc2)CC(=O)N[C@@H](C)C(=O)N[C@H]2CCC(=O)NCC[C@H](NC(=O)[C@H](CCC(N)=O)NC(=O)[C@H](Cc3c[nH]c4ccccc34)NC2=O)C(=O)N[C@@H](Cc2ccc(OCCN)cc2)C(=O)N[C@@H](CC2CC2)C(=O)NC(C)(C)C(=O)N1` [Compound 42, [4-Aminomethyl-phenylacetyl](1c)*AE(2c)WQ[Dab](2c)[Y(2-aminoethoxy)][Cyclopropyl-Ala][Aib]E(1c)[Dab][3-(3-Pyridyl)-Ala]-[NHMe]]: on human IL-23R, the “% displacement (hIL-23R binding)” value was found to be 100%.
In the case of `CNC(=O)[C@H](Cc1cccnc1)NC(=O)[C@H](CCN)NC(=O)[C@@H]1CCC(=O)NCc2ccc(cc2)CC(=O)N[C@@H](C)C(=O)N[C@H]2CCC(=O)NCC[C@H](NC(=O)[C@H](CCC(N)=O)NC(=O)[C@H](Cc3c[nH]c4ccccc34)NC2=O)C(=O)N[C@@H](Cc2ccc(OCCN)cc2)C(=O)N[C@@H](Cc2c[nH]c3ncccc23)C(=O)NC(C)(C)C(=O)N1` [Compound 44, [4-Aminomethyl-phenylacetyl](1c)*AE(2c)WQ[Dab](2c)[Y(2-aminoethoxy)][7-AzaTrp][Aib]E(1c)[Dab][3-(3-Pyridyl)-Ala]-[NHMe]], at human IL-23R, the midpoint of inhibition, the IC50, lay at 0.27 nM and the Emax amounted to 100%.
On to `CNC(=O)[C@H](Cc1cccnc1)NC(=O)[C@H](CCN)NC(=O)[C@@H]1CCC(=O)NCc2ccc(cc2)CC(=O)N[C@@H](C)C(=O)N[C@H]2CCC(=O)NCC[C@H](NC(=O)[C@H](CCC(N)=O)NC(=O)[C@H](Cc3c[nH]c4ccccc34)NC2=O)C(=O)N[C@@H](Cc2c[nH]c3ccccc23)CC(=O)N[C@@H](Cc2ccc3ccccc3c2)C(=O)NC(C)(C)C(=O)N1` [Compound 45, [4-Aminomethyl-phenylacetyl](1c)*AE(2c)WQ[Dab](2c)[beta-hTrp][2-Nal][Aib]E(1c)[Dab][3-(3-Pyridyl)-Ala]-[NHMe]], for which, at human IL-23R, the “% displacement (hIL-23R binding)” value was 104% and the IC50 was determined as 4.2 nM.
Regarding `CNC(=O)[C@H](Cc1cccnc1)NC(=O)[C@H](CCN)NC(=O)[C@@H]1CCC(=O)NCc2ccc(cc2)CC(=O)N[C@@H](C)C(=O)N[C@H]2CCC(=O)NCC[C@H](NC(=O)[C@H](CCC(N)=O)NC(=O)[C@H](Cc3c[nH]c4ccccc34)NC2=O)C(=O)N[C@@H](Cc2ccc(OCCN)cc2)C(=O)N[C@@H](Cc2c[nH]c3ccccc23)CC(=O)NC(C)(C)C(=O)N1` [Compound 46, [4-Aminomethyl-phenylacetyl](1c)*AE(2c)WQ[Dab](2c)[Y(2-aminoethoxy)][beta-hTrp][Aib]E(1c)[Dab][3-(3-Pyridyl)-Ala]-[NHMe]], at human IL-23R, half-maximal inhibition (IC50) required 57 nM and the Emax is 101%.
`CNC(=O)[C@H](Cc1cccnc1)NC(=O)[C@H](CCN)NC(=O)[C@@H]1CCC(=O)NCc2ccc(cc2)CC(=O)N[C@@H](C)C(=O)N[C@H]2CCC(=O)NCC[C@H](NC(=O)[C@H](CCC(N)=O)NC(=O)[C@H](Cc3c[nH]c4ccccc34)NC2=O)C(=O)N[C@@H](Cc2c[nH]c3c(F)cccc23)C(=O)N[C@@H](Cc2ccc3ccccc3c2)C(=O)NC(C)(C)C(=O)N1` [Compound 47, [4-Aminomethyl-phenylacetyl](1c)*AE(2c)WQ[Dab](2c)[7-F-Trp][2-Nal][Aib]E(1c)[Dab][3-(3-Pyridyl)-Ala]-[NHMe]]: on human IL-23R, the Emax is 103%.
As for `CC(C)C[C@]1(C)NC(=O)[C@H](Cc2ccc3ccccc3c2)NC(=O)[C@H](Cc2ccc(OCCN)cc2)NC(=O)[C@@H]2CCNC(=O)CC[C@H](NC(=O)[C@H](CO)NC(=O)Cc3ccc(cc3)CNC(=O)CC[C@@H](C(=O)N[C@@H](CCN)C(N)=O)NC1=O)C(=O)N[C@@H](Cc1c[nH]c3ccccc13)C(=O)N[C@@H](CCC(=O)N1CCCC1)C(=O)N2` [Ref 146, [4-Aminomethyl-phenylacetyl](1c)*SE(2c)W[Q(pyrrolidin)][Dab](2c)[Y(2-aminoethoxy)][2-Nal][2-Me-Leu]E(1c)[Dab]-[NH2], reference compound] ([X1]SEWE(Pyrrolidide)[Dab][AEF][2Nal][αMeL]E[Dab]-NH2; lactam 3-6, N-10), on human IL-23R, the “% displacement (hIL-23R binding)” value is on record as 105%.
In the case of H-DCSCWQCWWLCR-NH2 (bridge 4-7, 2-11; not fully specified (bridges)) [I3 (isomer 3)], in assay [1], the “hIL-23 (pSTAT3) antagonist % inhibition” value came out at 100%.

B1: Ref 125 (peptide)
peptide: [4‑Aminomethyl‑phenylacetyl]SEWQ[Dab][AEF][2Nal][αMeL]E[Dab]-NH2
modifications: lactam (positions not given here); lactam 3-6; not fully specified (bridges); printed as [4-Aminomethyl-phenylacetyl](1c)*SE(2c)WQ[Dab](2c)[Y(2-aminoethoxy)][2-Nal][2-Me-Leu]E(1c)[Dab]-[NH2]
Turning to B1, in assay [1], the “hIL-23 (pSTAT3) antagonist % inhibition” value amounted to 98% and the “hIL-23 (pSTAT3) antagonist IC50” value amounted to 21 nM.
The corresponding values for [4‑Aminomethyl‑phenylacetyl]SEWQ[Dab][AEF][2Nal][αMeL]E[dGly‑CF3][3Pal]-NH2 (lactam (positions not given here); lactam 3-6; not fully specified (bridges)) [Compound 16] are 97% and 1.4 nM.
